One test addresses T1, Abl kinase (Homo sapiens, UniProt P00519).
T1 construct: purchased Millipore (KinaseProfiler Service)
Put plainly: KinaseProfiler kinase inhibition assay, Abl. To be noted: 1 μM compound. Format: biochemical.

In the next test the target is T2, Alk kinase (Homo sapiens, UniProt Q9UM73).
T2 construct: purchased Millipore (KinaseProfiler Service)
Put plainly: KinaseProfiler kinase inhibition assay, Alk. The format is biochemical. To be noted: 1 μM compound.

The next test concerns the target T3, c-Src kinase (Homo sapiens, UniProt P12931).
T3 construct: purchased Millipore (KinaseProfiler Service)
Put plainly: KinaseProfiler kinase inhibition assay, c-Src. The format is biochemical. The following applies: 1 μM compound; read-out: % Inhibition @1 μM cSrc.

In the next test the target is T4, FGFR1 kinase (Homo sapiens, UniProt P11362).
T4 construct: purchased Millipore (KinaseProfiler Service)
T4 sequence (P11362 22-822): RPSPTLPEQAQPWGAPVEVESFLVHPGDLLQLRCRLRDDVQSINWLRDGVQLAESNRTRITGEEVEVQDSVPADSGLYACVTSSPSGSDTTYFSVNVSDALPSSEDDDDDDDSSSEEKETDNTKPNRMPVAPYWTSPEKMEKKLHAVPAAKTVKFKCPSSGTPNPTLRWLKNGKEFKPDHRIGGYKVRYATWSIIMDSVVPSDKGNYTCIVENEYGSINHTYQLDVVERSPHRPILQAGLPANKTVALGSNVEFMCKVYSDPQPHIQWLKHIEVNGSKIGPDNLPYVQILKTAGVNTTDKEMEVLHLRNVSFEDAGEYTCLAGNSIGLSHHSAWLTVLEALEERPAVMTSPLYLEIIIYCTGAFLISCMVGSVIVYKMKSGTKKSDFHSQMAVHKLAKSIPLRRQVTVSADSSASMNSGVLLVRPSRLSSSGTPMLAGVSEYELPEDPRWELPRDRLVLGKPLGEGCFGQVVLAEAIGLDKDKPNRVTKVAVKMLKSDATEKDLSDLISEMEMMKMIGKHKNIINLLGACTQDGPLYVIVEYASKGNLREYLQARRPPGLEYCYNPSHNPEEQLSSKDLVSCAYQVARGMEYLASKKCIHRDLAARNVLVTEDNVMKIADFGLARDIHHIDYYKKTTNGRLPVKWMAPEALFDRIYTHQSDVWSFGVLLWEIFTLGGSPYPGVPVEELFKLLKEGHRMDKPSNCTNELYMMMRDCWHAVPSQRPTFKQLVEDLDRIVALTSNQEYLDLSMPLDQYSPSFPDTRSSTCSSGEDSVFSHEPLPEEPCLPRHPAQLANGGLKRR
Put plainly: KinaseProfiler kinase inhibition assay, FGFR1. Format: biochemical. To be noted: 1 μM compound.

The target in a further test is T5, KDR kinase (Homo sapiens, UniProt P35968).
T5 construct: purchased Millipore (KinaseProfiler Service)
The experiment in a line: KinaseProfiler kinase inhibition assay, KDR. Format: biochemical. To be noted: 1 μM compound.

The next test deals with T6, Ret kinase (Homo sapiens, UniProt P07949).
T6 construct: purchased Millipore (KinaseProfiler Service)
T6 sequence (P07949 29-1114): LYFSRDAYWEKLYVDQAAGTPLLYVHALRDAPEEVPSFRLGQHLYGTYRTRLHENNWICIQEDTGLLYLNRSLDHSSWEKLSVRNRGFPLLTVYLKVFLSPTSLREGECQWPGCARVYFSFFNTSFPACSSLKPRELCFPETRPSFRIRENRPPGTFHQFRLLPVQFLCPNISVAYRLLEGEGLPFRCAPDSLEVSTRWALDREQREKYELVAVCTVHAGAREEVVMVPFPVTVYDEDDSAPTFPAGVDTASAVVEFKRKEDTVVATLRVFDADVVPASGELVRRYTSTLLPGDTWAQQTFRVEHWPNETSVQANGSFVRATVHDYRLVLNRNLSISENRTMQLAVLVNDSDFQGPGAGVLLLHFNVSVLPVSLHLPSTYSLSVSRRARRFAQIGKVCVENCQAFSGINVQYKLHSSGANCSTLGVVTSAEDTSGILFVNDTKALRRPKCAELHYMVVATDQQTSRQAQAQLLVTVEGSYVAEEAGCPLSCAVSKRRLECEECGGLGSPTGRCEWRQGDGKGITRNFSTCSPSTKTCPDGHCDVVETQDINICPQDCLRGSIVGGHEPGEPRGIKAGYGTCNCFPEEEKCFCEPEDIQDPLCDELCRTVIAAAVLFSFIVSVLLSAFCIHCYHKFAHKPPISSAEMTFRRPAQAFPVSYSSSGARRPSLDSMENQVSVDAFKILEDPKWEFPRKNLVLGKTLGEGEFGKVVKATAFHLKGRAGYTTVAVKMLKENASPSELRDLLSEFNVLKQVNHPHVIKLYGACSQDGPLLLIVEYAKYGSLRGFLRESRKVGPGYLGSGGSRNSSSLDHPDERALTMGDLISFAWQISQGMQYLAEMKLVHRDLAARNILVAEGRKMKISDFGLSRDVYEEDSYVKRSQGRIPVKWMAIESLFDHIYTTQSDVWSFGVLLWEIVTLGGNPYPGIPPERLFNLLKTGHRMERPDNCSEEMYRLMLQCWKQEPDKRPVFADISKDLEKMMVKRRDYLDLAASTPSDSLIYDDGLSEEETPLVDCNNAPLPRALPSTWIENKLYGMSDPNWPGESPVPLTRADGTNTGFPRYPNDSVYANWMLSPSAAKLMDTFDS
The experiment in a line: KinaseProfiler kinase inhibition assay, Ret. Format: biochemical. The following applies: 1 μM compound.

For a further test, the target named is T7, Tie2 (Homo sapiens, UniProt Q02763).
T7 construct: purchased Millipore (KinaseProfiler Service)
T7 sequence (Q02763 23-1124): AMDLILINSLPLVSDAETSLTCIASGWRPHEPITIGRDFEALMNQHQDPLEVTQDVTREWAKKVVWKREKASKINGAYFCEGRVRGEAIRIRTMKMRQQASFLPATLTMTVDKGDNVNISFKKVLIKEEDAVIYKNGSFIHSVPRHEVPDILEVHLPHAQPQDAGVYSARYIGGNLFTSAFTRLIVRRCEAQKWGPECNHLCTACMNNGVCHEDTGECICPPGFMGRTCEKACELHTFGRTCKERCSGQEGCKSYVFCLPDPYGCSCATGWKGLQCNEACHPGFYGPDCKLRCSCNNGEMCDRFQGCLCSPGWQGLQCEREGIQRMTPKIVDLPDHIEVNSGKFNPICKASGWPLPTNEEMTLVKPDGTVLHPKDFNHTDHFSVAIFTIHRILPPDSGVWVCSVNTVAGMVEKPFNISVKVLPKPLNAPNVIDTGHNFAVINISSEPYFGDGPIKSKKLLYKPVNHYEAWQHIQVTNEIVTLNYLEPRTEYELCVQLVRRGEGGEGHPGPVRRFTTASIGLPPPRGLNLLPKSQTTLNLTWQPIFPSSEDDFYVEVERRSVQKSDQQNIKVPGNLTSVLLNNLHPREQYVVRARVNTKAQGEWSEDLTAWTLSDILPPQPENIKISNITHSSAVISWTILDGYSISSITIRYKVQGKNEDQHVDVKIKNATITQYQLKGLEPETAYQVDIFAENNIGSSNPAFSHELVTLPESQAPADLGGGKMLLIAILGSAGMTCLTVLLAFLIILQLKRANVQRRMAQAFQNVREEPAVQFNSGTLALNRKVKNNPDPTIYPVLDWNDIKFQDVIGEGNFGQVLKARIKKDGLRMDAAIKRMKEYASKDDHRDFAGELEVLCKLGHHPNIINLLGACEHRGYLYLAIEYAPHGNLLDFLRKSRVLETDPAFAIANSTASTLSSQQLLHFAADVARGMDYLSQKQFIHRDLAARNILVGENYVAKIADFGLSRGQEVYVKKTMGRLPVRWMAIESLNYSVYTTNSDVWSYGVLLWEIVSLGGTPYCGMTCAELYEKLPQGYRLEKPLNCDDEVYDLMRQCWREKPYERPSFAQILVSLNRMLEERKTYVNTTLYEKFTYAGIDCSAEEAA
The experiment in a line: KinaseProfiler kinase inhibition assay, Tie2. Format: biochemical. To be noted: 1 μM compound.

Another test relates to MDA-MB134. Put plainly: CellTiterblue viability, 72 hr, MDA-MB134. Format: cell-based. The following applies: MDA-MB134 cells. The procedure:
A number of studies were performed to analyze the consequences of tyrosine kinase inhibition in cell lines. To do this, 1000 cells are seeded in 27 μl/well in 384-well microplates, which are then placed in a humidified CO2 incubator at 37° C. overnight. The next day, 3 μl/well of 10× concentrated drug is added and the plates are returned to the incubator for 72 hr. After 72 hr incubation, plates are removed and […] CellTiterblue (Promega) viability reagent is added. Plates are returned to the incubator for 3 hr, after which it is fluorescence measurements are read on the Victor X3 plate reader (Perkin Elmer). Data are analyzed using Excel (Microsoft), and GI50 values are determined using Prism (Graphpad).
For orientation: Alamar Blue is a resazurin reagent that responds to reducing activity.

A further test deals with AN3_CA. The experiment in a line: CellTiterblue viability, 72 hr, AN3_CA. To be noted: Homo sapiens, AN3-CA, AN3_CA cells. Format: cell-based. The essentials: (§1)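 Read-out is CellTiterblue fluorescence, measured after a 3 hr reagent incubation that follows 72 hr of drug treatment. Cells (1000 per well) are plated the day before dosing and kept at 37° C in a humidified CO2 incubator. Values are reported as GI50.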

The next test relates to Kato III. Put plainly: CellTiterblue viability, 72 hr, Kato III. To be noted: Homo sapiens, Kato III cells. Format: cell-based. The essentials: as §1
A further test concerns KG1a. The experiment in a line: CellTiterblue viability, 72 hr, KG1a. The format is cell-based. To be noted: Homo sapiens, KG-1a, KG1a cells. The essentials:
as §1

For another test, the system named is RT112. Put plainly: CellTiterblue viability, 72 hr, RT112. Format: cell-based. To be noted: Homo sapiens, RT-112, RT112 cells. The essentials:
as §1

Another test addresses T8, phospho-FGFR2 (Homo sapiens, UniProt P21802).
T8 construct: endogenous in cells; host or cells: Kato III cells
The experiment in a line: phospho-FGFR ELISA on Kato III cells. The following applies: read-out: EC50 (nM) P-FGFR2, Kato III cells. The format is cell-based. The procedure: For the phospho-FGFR, the following assay Protocol was used. 25,000 cells are seeded in 90 μl/well in 96-well microplates, which are then placed in a humidified CO2 incubator at 37° C. overnight. 96-well ELISA plates (Mesoscale Discovery) are coated with capture antibody (R&D Systems Duo-Set) at 4 μg/ml, 30 μl/well. The next day, 10 μl/well of 10× concentrated drug is added and the plates are returned to the incubator for […]. ELISA plates are washed using an automated plate washer (BioTek Instruments). After 30 min, cells are inverted and gently tapped to remove excess medium, and immediately placed on ice. 30 μl mPer cell lysis reagent (Thermo Scientific) with protease and phosphatase inhibitors is added/well. After 15 min on ice, lysates are mixed and 30 μl transferred to the ELISA plate. Plates are incubated for 2 hr, washed, and 30 μl/well detection antibody is added. After 1 hr, plates are washed and 30 μl “SulfoTag” (MesoScale Discovery) detection reagent is added. After 1 hr, plates are washed and 150 μl/well read solution is added. Electrochemiluminescence is determined on the Mesoscale Discovery Sector Imager 2000. Data are analyzed using Excel (Microsoft), and EC50 values are determined using Prism (Graphpad).

Bounds are passed on as bounds.

T8 sequence (P21802 22-766 isoform P21802-8 limits assumed): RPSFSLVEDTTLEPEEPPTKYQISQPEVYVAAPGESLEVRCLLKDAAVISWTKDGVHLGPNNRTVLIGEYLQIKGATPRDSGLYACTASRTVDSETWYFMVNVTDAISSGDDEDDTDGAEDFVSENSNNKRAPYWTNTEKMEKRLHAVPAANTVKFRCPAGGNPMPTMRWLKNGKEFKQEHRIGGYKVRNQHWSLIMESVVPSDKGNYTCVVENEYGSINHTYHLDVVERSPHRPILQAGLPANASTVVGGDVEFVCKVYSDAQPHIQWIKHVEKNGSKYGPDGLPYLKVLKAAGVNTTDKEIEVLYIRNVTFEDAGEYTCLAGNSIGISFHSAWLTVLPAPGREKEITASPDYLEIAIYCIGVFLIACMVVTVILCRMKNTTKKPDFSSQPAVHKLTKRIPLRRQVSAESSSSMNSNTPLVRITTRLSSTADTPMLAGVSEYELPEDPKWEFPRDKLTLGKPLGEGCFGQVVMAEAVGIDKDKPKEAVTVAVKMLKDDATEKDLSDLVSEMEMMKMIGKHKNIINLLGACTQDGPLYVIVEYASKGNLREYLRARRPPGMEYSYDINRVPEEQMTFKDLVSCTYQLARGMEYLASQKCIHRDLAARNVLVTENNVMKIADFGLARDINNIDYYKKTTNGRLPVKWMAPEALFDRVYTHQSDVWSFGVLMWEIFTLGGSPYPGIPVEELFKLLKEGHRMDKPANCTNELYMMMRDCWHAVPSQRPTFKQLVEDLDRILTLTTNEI
T3 sequence (P12931 whole entry): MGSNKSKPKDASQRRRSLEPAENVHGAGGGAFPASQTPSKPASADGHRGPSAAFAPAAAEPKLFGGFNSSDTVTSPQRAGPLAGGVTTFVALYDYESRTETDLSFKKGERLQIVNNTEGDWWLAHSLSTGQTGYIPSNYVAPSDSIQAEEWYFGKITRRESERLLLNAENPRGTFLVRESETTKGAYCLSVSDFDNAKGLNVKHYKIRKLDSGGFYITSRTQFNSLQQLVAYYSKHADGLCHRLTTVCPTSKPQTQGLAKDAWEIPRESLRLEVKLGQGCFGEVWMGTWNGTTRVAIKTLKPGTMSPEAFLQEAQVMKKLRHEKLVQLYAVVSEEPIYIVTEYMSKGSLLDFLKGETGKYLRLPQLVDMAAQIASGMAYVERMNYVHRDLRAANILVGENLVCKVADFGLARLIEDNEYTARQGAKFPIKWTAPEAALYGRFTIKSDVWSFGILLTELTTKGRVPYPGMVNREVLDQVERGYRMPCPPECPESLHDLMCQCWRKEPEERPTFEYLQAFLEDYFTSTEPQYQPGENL

Regarding `Cc1cc2c(F)c(Oc3ncnc(Nc4cc(C5CC5)n[nH]4)c3F)ccc2[nH]1` [Compound 32, N-(3-cyclopropyl-1H-pyrazol-5-yl)-5-fluoro-6-((4-fluoro-2-methyl-1H-indol-5-yl)oxy) pyrimidin-4-amine], the inhibition at 1 µM against Abl kinase is 0%; at Alk kinase, -21%; on c-Src kinase, -7%; against FGFR1 kinase, 40%; on KDR kinase, 54%; on Ret kinase, -33%. On Tie2, the inhibition at 1 µM is -9%. Also, the GI50 was 138 nM with MDA-MB134; over 500 nM in the test with AN3_CA; over 500 nM in the test with Kato III; over 500 nM in the test with KG1a; over 500 nM in the test on RT112. Also, the EC50 at phospho-FGFR2 is over 500 nM.

Turning to `CCN1CCN(c2ccc(Nc3cc(Oc4cc(F)c5[nH]c(C)cc5c4F)ncn3)cc2)CC1` [Compound 49], the inhibition at 1 µM was determined as 68% against Abl kinase; 69% against Alk kinase; 74% at c-Src kinase; 99% on FGFR1 kinase; 96% at KDR kinase; 53% against Ret kinase. In addition, on Tie2, the inhibition at 1 µM was 69%. The GI50 with MDA-MB134 was 56 nM; in the test with AN3_CA, over 500 nM; in the test on Kato III, 207 nM; with KG1a, 60 nM; in the test with RT112 it was over 500 nM. In addition, the EC50 on phospho-FGFR2 came to 75 nM.

On to `Cc1cc2c(F)c(Oc3cc(N4CCN(c5ccc(N)cc5F)CC4)ncn3)ccc2[nH]1` [Example 10], for which the inhibition at 1 µM on Abl kinase was 13%; against Alk kinase, 40%; on c-Src kinase, 8%; against FGFR1 kinase, -4%; against KDR kinase it was 20%; against Ret kinase it was -19%. Moreover, the inhibition at 1 µM on Tie2 is -12%. For the same molecule, the GI50 with AN3_CA is 33 nM; in the test with Kato III it was 142 nM; in the test on KG1a, over 100 nM; in the test with RT112, over 100 nM. Further, the EC50 at phospho-FGFR2 is over 100 nM.

Consider `CCN1CCN(c2ccc(Nc3ncnc(Oc4ccc5[nH]c(C)cc5c4F)c3C#N)cc2)CC1` [Compound 53], for which the inhibition at 1 µM against Abl kinase was 11%; on Alk kinase, 49%; on c-Src kinase, 10%; at FGFR1 kinase it was 100%; against KDR kinase, 98%; against Ret kinase it was -25%. Further, the inhibition at 1 µM on Tie2 came to 5%. Besides, the GI50 in the test with MDA-MB134 was 5 nM; in the test with AN3_CA it was over 500 nM; with Kato III it was 34 nM; in the test with KG1a, 10 nM; with RT112, over 500 nM. Further, at phospho-FGFR2, the EC50 stood at 18 nM.

As for `COc1cc(CCc2cc(Nc3cc(Oc4ccc5[nH]c(C)cc5c4F)ncn3)n[nH]2)cc(OC)c1` [Example 22], the inhibition at 1 µM came out at 19% against Abl kinase; 15% at Alk kinase; 9% at c-Src kinase; 98% against FGFR1 kinase; 96% against KDR kinase; 25% against Ret kinase. In addition, the inhibition at 1 µM on Tie2 turned out to be 18%. In addition, the GI50 with AN3_CA was over 500 nM; in the test on Kato III, 229 nM; in the test with KG1a it was over 100 nM; in the test with RT112, over 100 nM. Also, at phospho-FGFR2, the EC50 was over 100 nM.

In general, inhibition refers to the relative decrease from the control value, in per cent. By GI50 is commonly meant the concentration that inhibits growth by half. The EC50 is the concentration giving half of the maximal effect.
